Experimental data as given in the NIST ThermoML archive (doi:10.1016/j.jct.2011.01.016).
Numbers after ± are expanded uncertainties.

Conditions: 101.33 kPa, Liquid; for viscosity: Concentric cylinders viscometry; for mass density: Vibrating tube method

Row | Structure (SMILES) | viscosity (278.15 K) | mass density (278.15 K) | viscosity (283.15 K) | mass density (283.15 K) | viscosity (288.15 K) | mass density (288.15 K) | viscosity (293.15 K) | mass density (293.15 K) | viscosity (298.15 K) | mass density (298.15 K) | viscosity (303.15 K) | mass density (303.15 K) | viscosity (308.15 K) | mass density (308.15 K) | viscosity (313.15 K) | mass density (313.15 K) | viscosity (318.15 K) | mass density (318.15 K) | viscosity (323.15 K) | mass density (323.15 K) | also measured
1 | CC(CC(C)(C)C)CP(=O)([O-])CC(C)CC(C)(C)C.CCCCCCCCCCCCCC[P+](CCCCCC)(CCCCCC)CCCCCC | 5574.5 ± 360 mPa·s | 897.3 ± 1 kg/m3 | 3805.5 ± 220 mPa·s | 894.3 ± 1 kg/m3 | 2675.3 ± 140 mPa·s | 891.3 ± 1 kg/m3 | 1918.2 ± 95 mPa·s | 888.3 ± 1 kg/m3 | 1401.7 ± 63 mPa·s | 885.3 ± 1 kg/m3 | 1041.5 ± 43 mPa·s | 882.3 ± 1 kg/m3 | 785.77 ± 29 mPa·s | 879.3 ± 1 kg/m3 | 601.35 ± 20 mPa·s | 876.3 ± 1 kg/m3 | 466.24 ± 14 mPa·s | 873.4 ± 1 kg/m3 | 365.83 ± 10 mPa·s | 870.4 ± 1 kg/m3 | viscosity (328.15 K): 290.28 ± 7.1 mPa·s; mass density (328.15 K): 867.5 ± 1 kg/m3; viscosity (333.15 K): 232.76 ± 5 mPa·s; mass density (333.15 K): 864.6 ± 1 kg/m3; viscosity (338.15 K): 188.43 ± 3.5 mPa·s; mass density (338.15 K): 861.7 ± 1 kg/m3; viscosity (343.15 K): 153.95 ± 2.5 mPa·s; mass density (343.15 K): 858.9 ± 1 kg/m3; viscosity (348.15 K): 126.77 ± 1.8 mPa·s; mass density (348.15 K): 856 ± 1 kg/m3; viscosity (353.15 K): 105.22 ± 1.3 mPa·s; mass density (353.15 K): 853.2 ± 1 kg/m3; viscosity (358.15 K): 87.92 ± 0.98 mPa·s; mass density (358.15 K): 850.3 ± 1 kg/m3; viscosity (363.15 K): 73.91 ± 0.74 mPa·s; mass density (363.15 K): 847.5 ± 1 kg/m3
2 | CCCCCCCCCCCCCC[P+](CCCCCC)(CCCCCC)CCCCCC.O=S(=O)([N-]S(=O)(=O)C(F)(F)F)C(F)(F)F | 1246.2 ± 54 mPa·s | 1081.1 ± 1 kg/m3 | 871.17 ± 34 mPa·s | 1077.4 ± 1 kg/m3 | 622.45 ± 21 mPa·s | 1073.6 ± 1 kg/m3 | 453.64 ± 14 mPa·s | 1069.8 ± 1 kg/m3 | 336.74 ± 8.9 mPa·s | 1066.1 ± 1 kg/m3 | 254.24 ± 5.8 mPa·s | 1062.4 ± 1 kg/m3 | 195.04 ± 3.8 mPa·s | 1058.8 ± 1 kg/m3 | 151.85 ± 2.5 mPa·s | 1055.2 ± 1 kg/m3 | 119.85 ± 1.7 mPa·s | 1051.6 ± 1 kg/m3 | 95.81 ± 1.1 mPa·s | 1048 ± 1 kg/m3 | viscosity (328.15 K): 77.55 ± 0.8 mPa·s; mass density (328.15 K): 1044.4 ± 1 kg/m3; viscosity (333.15 K): 63.47 ± 0.59 mPa·s; mass density (333.15 K): 1040.9 ± 1 kg/m3; viscosity (338.15 K): 52.49 ± 0.46 mPa·s; mass density (338.15 K): 1037.3 ± 1 kg/m3; viscosity (343.15 K): 43.84 ± 0.4 mPa·s; mass density (343.15 K): 1033.7 ± 1 kg/m3; viscosity (348.15 K): 36.95 ± 0.34 mPa·s; mass density (348.15 K): 1030.2 ± 1 kg/m3; viscosity (353.15 K): 31.41 ± 0.29 mPa·s; mass density (353.15 K): 1026.6 ± 1 kg/m3; viscosity (358.15 K): 26.91 ± 0.25 mPa·s; mass density (358.15 K): 1023.1 ± 1 kg/m3
3 | CCCCCCCCCCCCCC[P+](CCCCCC)(CCCCCC)CCCCCC.N#C[N-]C#N [tetradecyl(trihexyl)phosphonium dicyanamide] | 1646.8 ± 78 mPa·s | 910.8 ± 1 kg/m3 | 1144.9 ± 49 mPa·s | 907.8 ± 1 kg/m3 | 816.36 ± 31 mPa·s | 904.9 ± 1 kg/m3 | 592.93 ± 20 mPa·s | 901.9 ± 1 kg/m3 | 438.57 ± 13 mPa·s | 899 ± 1 kg/m3 | 329.68 ± 8.6 mPa·s | 896.1 ± 1 kg/m3 | 251.71 ± 5.7 mPa·s | 893.3 ± 1 kg/m3 | 195 ± 4 mPa·s | 890.4 ± 1 kg/m3 | 153.15 ± 2.5 mPa·s | 887.6 ± 1 kg/m3 | 121.78 ± 1.7 mPa·s | 884.8 ± 1 kg/m3 | viscosity (328.15 K): 97.96 ± 1.2 mPa·s; mass density (328.15 K): 882 ± 1 kg/m3; viscosity (333.15 K): 79.73 ± 0.84 mPa·s; mass density (333.15 K): 879.2 ± 1 kg/m3; viscosity (338.15 K): 65.56 ± 0.61 mPa·s; mass density (338.15 K): 876.4 ± 1 kg/m3; viscosity (343.15 K): 54.43 ± 0.48 mPa·s; mass density (343.15 K): 873.7 ± 1 kg/m3; viscosity (348.15 K): 45.6 ± 0.42 mPa·s; mass density (348.15 K): 870.9 ± 1 kg/m3; viscosity (353.15 K): 38.53 ± 0.35 mPa·s; mass density (353.15 K): 868.1 ± 1 kg/m3; viscosity (358.15 K): 32.85 ± 0.3 mPa·s; mass density (358.15 K): 865.3 ± 1 kg/m3; viscosity (363.15 K): 28.2 ± 0.3 mPa·s; mass density (363.15 K): 862.6 ± 1 kg/m3
4 | CCCCCCCCCCCCCC[P+](CCCCCC)(CCCCCC)CCCCCC.[Br-] [tetradecyltrihexylphosphonium bromide] | 16955 ± 1300 mPa·s | 967.5 ± 1 kg/m3 | 10457 ± 760 mPa·s | 964.4 ± 1 kg/m3 | 6688.3 ± 440 mPa·s | 961.3 ± 1 kg/m3 | 4421.3 ± 270 mPa·s | 958.2 ± 1 kg/m3 | 2988.4 ± 170 mPa·s | 955.2 ± 1 kg/m3 | 2065.2 ± 100 mPa·s | 952.1 ± 1 kg/m3 | 1456.3 ± 67 mPa·s | 949 ± 1 kg/m3 | 1046.7 ± 43 mPa·s | 946 ± 1 kg/m3 | 764.04 ± 28 mPa·s | 942.9 ± 1 kg/m3 | 568.06 ± 19 mPa·s | 939.8 ± 1 kg/m3 | viscosity (328.15 K): 428.98 ± 13 mPa·s; mass density (328.15 K): 936.7 ± 1 kg/m3; viscosity (333.15 K): 328.56 ± 8.5 mPa·s; mass density (333.15 K): 933.7 ± 1 kg/m3; viscosity (338.15 K): 255.03 ± 5.8 mPa·s; mass density (338.15 K): 930.7 ± 1 kg/m3; viscosity (343.15 K): 200.46 ± 3.9 mPa·s; mass density (343.15 K): 927.6 ± 1 kg/m3; viscosity (348.15 K): 159.44 ± 2.7 mPa·s; mass density (348.15 K): 924.6 ± 1 kg/m3; viscosity (353.15 K): 128.21 ± 1.9 mPa·s; mass density (353.15 K): 921.7 ± 1 kg/m3; viscosity (358.15 K): 104.15 ± 1.3 mPa·s; mass density (358.15 K): 918.7 ± 1 kg/m3; viscosity (363.15 K): 85.44 ± 0.94 mPa·s; mass density (363.15 K): 915.7 ± 1 kg/m3
5 | CCCCCCCCCCCCCC[P+](CCCCCC)(CCCCCC)CCCCCC.[Cl-] [trihexyl(tetradecyl)phosphonium chloride] | 15339 ± 1200 mPa·s | 901.6 ± 1 kg/m3 | 9447.7 ± 670 mPa·s | 898.6 ± 1 kg/m3 | 6088.5 ± 400 mPa·s | 895.7 ± 1 kg/m3 | 4030.4 ± 240 mPa·s | 892.8 ± 1 kg/m3 | 2729.1 ± 150 mPa·s | 889.9 ± 1 kg/m3 | 1890.3 ± 93 mPa·s | 887 ± 1 kg/m3 | 1336.4 ± 60 mPa·s | 884 ± 1 kg/m3 | 962.5 ± 39 mPa·s | 881.1 ± 1 kg/m3 | 705.75 ± 25 mPa·s | 878.2 ± 1 kg/m3 | 525.98 ± 17 mPa·s | 875.3 ± 1 kg/m3 | viscosity (328.15 K): 398.19 ± 11 mPa·s; mass density (328.15 K): 872.3 ± 1 kg/m3; viscosity (333.15 K): 305.73 ± 7.7 mPa·s; mass density (333.15 K): 869.5 ± 1 kg/m3; viscosity (338.15 K): 237.78 ± 5.2 mPa·s; mass density (338.15 K): 866.6 ± 1 kg/m3; viscosity (343.15 K): 187.39 ± 3.5 mPa·s; mass density (343.15 K): 863.7 ± 1 kg/m3; viscosity (348.15 K): 149.21 ± 2.4 mPa·s; mass density (348.15 K): 860.8 ± 1 kg/m3; viscosity (353.15 K): 120.11 ± 1.7 mPa·s; mass density (353.15 K): 858 ± 1 kg/m3; viscosity (358.15 K): 97.66 ± 1.2 mPa·s; mass density (358.15 K): 855.1 ± 1 kg/m3; viscosity (363.15 K): 80.17 ± 0.85 mPa·s; mass density (363.15 K): 852.3 ± 1 kg/m3
6 | CCCCCCCCCC(=O)[O-].CCCCCCCCCCCCCC[P+](CCCCCC)(CCCCCC)CCCCCC [trihexyltetradecylphosphonium decanoate] | 1915.7 ± 95 mPa·s | 893.2 ± 1 kg/m3 | 1292.9 ± 57 mPa·s | 890 ± 1 kg/m3 | 902.16 ± 36 mPa·s | 886.9 ± 1 kg/m3 | 644.41 ± 23 mPa·s | 883.7 ± 1 kg/m3 | 471.51 ± 15 mPa·s | 880.6 ± 1 kg/m3 | 352.09 ± 9.5 mPa·s | 877.5 ± 1 kg/m3 | 267.73 ± 6.2 mPa·s | 874.4 ± 1 kg/m3 | 207.27 ± 4.1 mPa·s | 871.3 ± 1 kg/m3 | 163 ± 3 mPa·s | 868.3 ± 1 kg/m3 | 130.01 ± 1.9 mPa·s | 865.3 ± 1 kg/m3 | viscosity (328.15 K): 104.89 ± 1.3 mPa·s; mass density (328.15 K): 862.2 ± 1 kg/m3; viscosity (333.15 K): 85.75 ± 0.95 mPa·s; mass density (333.15 K): 859.2 ± 1 kg/m3; viscosity (338.15 K): 70.93 ± 0.69 mPa·s; mass density (338.15 K): 856.2 ± 1 kg/m3; viscosity (343.15 K): 59.27 ± 0.53 mPa·s; mass density (343.15 K): 853.2 ± 1 kg/m3; viscosity (348.15 K): 49.99 ± 0.46 mPa·s; mass density (348.15 K): 850.2 ± 1 kg/m3; viscosity (353.15 K): 42.54 ± 0.39 mPa·s; mass density (353.15 K): 847.3 ± 1 kg/m3; viscosity (358.15 K): 36.46 ± 0.33 mPa·s; mass density (358.15 K): 844.3 ± 1 kg/m3; viscosity (363.15 K): 31.47 ± 0.29 mPa·s; mass density (363.15 K): 841.3 ± 1 kg/m3
